Experimental data from patent US10590121B2, “Kinase inhibitors and methods for making and using” (Rigel Pharmaceuticals, Inc., priority 2017, dated 2020).

Key:
[1] = test system: LPS induced IL23p19 in THP-1 cells; test: LPS Induced IL23p19 in THP-1 Cells (with IFNγ Primed) Assay; assay type: cell-based; details: Homo sapiens; THP-1 cells primed with IFNγ 50 ng/mL, 1 μg/mL LPS, 18 hours, 10 pt; read-out: IL23-p19 ELISA, THP1-IFNy, LPS, 10 pt EC50
Source text: LPS Induced IL23p19 in THP-1 Cells (with IFNγ Primed) Assay
THP-1 Cells (ATCC, Cat # TIB-202), Dimethyl Sulfoxide (DMSO) (Sigma-Aldrich, Cat # D2650), RPMI 1640 (Cellgro, Cat #10-040-CM), Fetal Bovine Serum (Sigma, Cat # F4135), Albumin From Bovine Serum (BSA) (Sigma-Aldrich, Cat # A7906), LPS (Serotype K-235, Sigma, Product Number L 2143), IFNγ (Peprotech, Cat #300-02), Capture antibody: Human IL-23p19 ELISA (e-Bioscience, Cat. #14-7238-85), Detection antibody: Primary Mouse Biotinylated anti-human IL-12 (p40/p70) (e-Bioscience, Cat. #13-7129-85), Secondary HRP-conjugated Streptavidin (R&D Systems, Cat # DY998), 1×PBST Washing Buffer (PBS-Tween tablet) (VWR International, Cat #80058-558), ELISA Blocking Buffer (PBS with 1% BSA), ELISA Dilution Buffer (PBS with 1% BSA), 384 Well Flat-Bottom, MaxiSorp Black Immuno Plates (Thermo Scientific, Cat #12-565-346), 384 Well Flat-Bottom, White Tissue Culture Plates (Thermo Scientific, Cat #12-565-343), Super Signal ELISA Pico Chemiluminescent Substrate (Thermo Scientific, Cat #37070), Cell Titer Glo reagent (Promega, Cat # G7573), Positive control, IKK2VI inhibitor (Calbiochem, Cat #401483), AquaMax 4000 plate washer (Molecular Devices), Luminometer, Wallac Victor2 1420 Multilabel Counter.
On day 1, 50K/well THP-1 cells were seeded and primed with IFNγ (50 ng/mL) in 384-well plates for about 18 hours in RPMI media with 10% FBS. On day 2, the compound was serially diluted in DMSO from 5 mM in 3-fold dilutions, and then diluted 1:125 in RPMI media with 10% FBS. 50 μL/well 2× compound was added to 50 μL/well THP-1 cells (with IFNγ primed) in duplicate in 384 well tissue culture plates. The cells were pre-incubated with compound for 1 hour at 37° C., 5% CO2 before addition of 10 μL/well 11×LPS to give a final concentration of 1 μg/mL LPS. Day 3, after stimulation for 18 hours at 37° C., 5% CO2, the assay plate was centrifuged and 70 μL/well supernatant was harvested. IL-23p19 protein in 70 μL/well of supernatant was measured by sandwich ELISA, and 25 μl/well Cell Titer Glo reagent was added to the remaining cells to measure compound toxicity.
Human IL-23p19 Sandwich ELISA:
Maxisorp immuno ELISA plates were pre-coated with 25 μL/well of anti-IL-23p19 capture antibody (2.5 ug/mL) in PBS overnight at room temperature. After washing with 1×PBST, the plates were blocked using 100 μL/well of 1% BSA in PBS for 2 hours at room temperature. The plates were washed three times with 1×PBST and 70 μL/well supernatant were added. The plates were incubated at room temperature for 2 hours with shaking and washed three times with 1×PBST. 25 μL/well of biotin labeled anti-IL-12 (p40/p70) detection antibody (100 ng/mL) in PBS with 1% BSA was added and the plates were incubated at room temperature for 2 hours with shaking. After washing three times with 1×PBST, 25 μL/well of streptavidin-HRP (1:200) in PBS with 1% BSA was added and the plates were incubated at room temperature for 20 minutes with shaking. The plates were washed three times with 1×PBST and 25 μL/well of Super Signal ELISA Pico Chemiluminescent Substrate were added. The plates were read with a luminometer, and the chemiluminescence values were entered into Athena (Rigel) for curve fitting, EC50 calculation, and database storage.

[2] = test system: LPS induced IL-23 (p19/p40) in DC cells differentiated from human PBMC; test: IL23-p19 ELISA, dendritic cells (DC differentiated from human PBMC), IFNγ primed, LPS stimulated; assay type: cell-based; details: human PBMC-derived dendritic cells, 1 μg/ml LPS, 18 hours, 10 pt
Description: Compound Screening Using DC Cells
1. Differentiation of PBMC's to DC Cells:
Human PBMC cells (400 million) obtained from the vendor were transferred into a T-175 flask containing 15 ml RPMI media (10% FBS) and incubate for 2 hours at 37° C. After 2 hours, the media including floating cells was aspirated out carefully and 12 ml of fresh RPMI media (10% FBS) containing GMCSF (100 ng/ml) and IL4 (20 ng/ml) was added, and the flask was kept in a 37° C. incubator for 7 days.
After 3 days, fresh GMCSF (100 ng/ml) and IL4 (20 ng/ml) were added to the flask and the incubation continued. After 7 days, the fully differentiated cells were harvested by spinning down (1200 rpm/5 min) and aspirating the media. The cells were suspended in fresh RPMI media (10% FBS) containing 50 ng/ml IFNγ (1000 U/ml) and then plated (50K/well in 100 μl) onto a white clear bottom 96 well plate and left in a 37° C. incubator for 24 hours.
2. Addition of Compounds:
After 24 hours incubation, 100 μl of RPMI media was added containing 2× concentrated test compound per well to the above cell-culture media (final concentration becomes 1×) and the plates were pre-incubated for 1 hour at 37° C. before stimulating with LPS.
After 1 hour compound pre-incubation, 10 μl per well of 20× concentrated LPS solution in RPMI media was added to give a final concentration of 1 μg/ml. The mixture was shaken and incubated the plates at 37° C. for an additional 18 hours.
155 μl of the supernatant was harvested from each well carefully (without the tip touching the bottom of the well) and to the remaining 50 μl/well of the cell culture plate was added 50 μl of Cell Titer Glo reagent. The mixture was incubated for 1-2 minutes on a shaker and the plate was read for luminescence intensity to determine the compound cytotoxicity. The cell culture supernatant collected above was used to carry out IL23 ELISA (65 μl-Supernatant) and IL10 ELISA (90 μl-Supernatant) as described below.
Human IL-23 (p19/p40) ELISA Protocol (e-Biosciences)
To 10.5 ml PBS add 50 μl of anti-IL23 (p19) was added capture antibody (2.5 μg/ml). The mixture was mixed well and 100 μl of the coating solution was added to each well of the 96 well white plates from Pierce. The wells were covered and incubated overnight at 4° C.
The anti-IL23 (p19)-antibody-coated plates were washed 2× using TBST (use plate washer) and blocked using 200 μl of 0.5% Casein for 1.5-2 hours at room temperature with shaking.
The plates were washed 2× using TBST and the supernatant was transferred (65 μl/well) to the above pre-blocked/IL23 (p19)-antibody-coated 96 well plate, and incubated at room temperature for 1.5 hours with shaking.
The plates were washed 4× using TBST (plate washer) and 100 μl/well detection antibody solution prepared from 2 μl of biotin labeled anti-IL-12 (p40/p70) antibody in 11 ml 1% BSA/PBS solution (1-5000 dilution) was added. The plates were incubated for 1 hour with shaking at room temperature.
Again, the plates were washed 4× with TBST and 100 μl of HRP labeled Streptavidin (R&D Systems) solution (10 μl/10 ml 1% BSA solution) was added, and the plates were incubated at room temperature for another 45 minutes with shaking.
After 45 minutes, the plates were washed with TBST 4× and 100 ul/well Super Signal ELISA Pico Chemiluminescent Substrate from Pierce (3.5 ml A+3.5 ml B+3.5 ml MQ water) was added. The plates were shaken for 1-2 minutes then read on a plate reader.

Structure (SMILES)	EC50 [1]	EC50 [2]
O=C(Nc1cc(C(F)(F)CN2CCOCC2)ccc1N1CCCCC1)c1csc(-c2cn[nH]c2)n1 [I-35, N-(5-(1,1-difluoro-2-morpholinoethyl)-2-(piperidin-1-yl)phenyl)-2-(1H-pyrazol-4-yl)thiazole-4-carboxamide]	1080 nM	2600 nM
O=C(Nc1ccc(N2CCOCC2)cc1N1CCCCC1)c1cccc(-c2cn[nH]c2)n1 [I-36, N-(4-morpholino-2-(piperidin-1-yl)phenyl)-6-(1H-pyrazol-4-yl)picolinamide]	2720 nM	1300 nM
O=C(Nc1ccc(N2CCOCC2)cc1N1CCCCC1)c1ccc(-c2cn[nH]c2)o1 [I-37, N-(4-morpholino-2-(piperidin-1-yl)phenyl)-5-(1H-pyrazol-4-yl)furan-2-carboxamide]	262 nM	153 nM
O=C(Nc1ccc(N2CCOCC2)cc1N1CCCCC1)c1csc(-c2cn[nH]c2)n1 [I-38, N-(4-morpholino-2-(piperidin-1-yl)phenyl)-2-(1H-pyrazol-4-yl)thiazole-4-carboxamide]	31000 nM	3980 nM
COc1ccc(N2CCOCC2)cc1NC(=O)c1cccc(-c2cn[nH]c2)n1 [I-39, N-(2-methoxy-5-morpholinophenyl)-6-(1H-pyrazol-4-yl)picolinamide]	6590 nM	3230 nM
COc1ccc(N2CCOCC2)cc1NC(=O)c1csc(-c2cn[nH]c2)n1 [I-41, N-(2-methoxy-5-morpholinophenyl)-2-(1H-pyrazol-4-yl)thiazole-4-carboxamide]	3920 nM	9220 nM
O=C(Nc1cnc(N2CCOCC2)cc1N1CCCCC1)c1cccc(-c2cn[nH]c2)n1 [I-42, N-(6-morpholino-4-(piperidin-1-yl)pyridin-3-yl)-6-(1H-pyrazol-4-yl)picolinamide]	1040 nM	3080 nM
O=C(Nc1cnc(N2CCOCC2)cc1N1CCCCC1)c1ccc(-c2cn[nH]c2)o1 [I-43, N-(6-morpholino-4-(piperidin-1-yl)pyridin-3-yl)-5-(1H-pyrazol-4-yl)furan-2-carboxamide]	2690 nM	3450 nM
O=C(Nc1cnc(N2CCOCC2)cc1N1CCCCC1)c1csc(-c2cn[nH]c2)n1 [I-44, N-(6-morpholino-4-(piperidin-1-yl)pyridin-3-yl)-2-(1H-pyrazol-4-yl)thiazole-4-carboxamide]	222 nM	229 nM
O=C(Nc1ccc(C(=O)N2CCOCC2)cc1N1CCCCC1)c1cccc(-c2cn[nH]c2)n1 [I-45, N-(4-(morpholine-4-carbonyl)-2-(piperidin-1-yl)phenyl)-6-(1H-pyrazol-4-yl)picolinamide]	117 nM	84 nM
O=C(Nc1ccc(C(=O)N2CCOCC2)cc1N1CCCCC1)c1ccc(-c2cn[nH]c2)o1 [I-46, N-(4-(morpholine-4-carbonyl)-2-(piperidin-1-yl)phenyl)-5-(1H-pyrazol-4-yl)furan-2-carboxamide]	1360 nM	2660 nM
O=C(Nc1ccc(C(=O)N2CCOCC2)cc1N1CCCCC1)c1csc(-c2cn[nH]c2)n1 [I-47, N-(4-(morpholine-4-carbonyl)-2-(piperidin-1-yl)phenyl)-2-(1H-pyrazol-4-yl)thiazole-4-carboxamide]	164 nM	2460 nM
O=C(Nc1ccc(CN2CCOCC2)cc1N1CCCCC1)c1cccc(-c2cn[nH]c2)n1 [I-48, N-(4-(morpholinomethyl)-2-(piperidin-1-yl)phenyl)-6-(1H-pyrazol-4-yl)picolinamide]	177 nM	468 nM
O=C(Nc1ccc(CN2CCOCC2)cc1N1CCCCC1)c1ccc(-c2cn[nH]c2)o1 [I-49, N-(4-(morpholinomethyl)-2-(piperidin-1-yl)phenyl)-5-(1H-pyrazol-4-yl)furan-2-carboxamide]	1270 nM	2960 nM
O=C(Nc1ccc(CN2CCOCC2)cc1N1CCCCC1)c1csc(-c2cn[nH]c2)n1 [I-50, N-(4-(morpholinomethyl)-2-(piperidin-1-yl)phenyl)-2-(1H-pyrazol-4-yl)thiazole-4-carboxamide]	130 nM	71.7 nM
O=C(Nc1ccc(CC(=O)N2CCOCC2)cc1N1CCCCC1)c1cccc(-c2cn[nH]c2)n1 [I-51, N-(4-(2-morpholino-2-oxoethyl)-2-(piperidin-1-yl)phenyl)-6-(1H-pyrazol-4-yl)picolinamide]	65.6 nM	154 nM
O=C(Nc1ccc(CC(=O)N2CCOCC2)cc1N1CCCCC1)c1ccc(-c2cn[nH]c2)o1 [I-52, N-(4-(2-morpholino-2-oxoethyl)-2-(piperidin-1-yl)phenyl)-5-(1H-pyrazol-4-yl)furan-2-carboxamide]	1060 nM	3170 nM
O=C(Nc1ccc(CC(=O)N2CCOCC2)cc1N1CCCCC1)c1csc(-c2cn[nH]c2)n1 [I-53, N-(4-(2-morpholino-2-oxoethyl)-2-(piperidin-1-yl)phenyl)-2-(1H-pyrazol-4-yl)thiazole-4-carboxamide]	167 nM	408 nM
